Experimental data as given in the CheMixHub drug solubility set.

Assay: xn = mol fraction of the nth substance listed, in the solute-free solvent

CS(=O)(=O)c1ccc(C(O)C(CF)NC(=O)C(Cl)Cl)cc1 (stereo not drawn) + CCO + O
solubility (g/100 g solution)
Details | 278.15 K | 283.15 K | 288.15 K | 293.15 K | 298.15 K | 303.15 K | 308.15 K | 313.15 K | 318.15 K
x2 = 0.04165 | 0.113 | 0.15 | 0.202 | 0.267 | 0.34 | 0.453 | 0.569 | 0.728 | 0.926
x2 = 0.08908 | 0.225 | 0.295 | 0.39 | 0.507 | 0.655 | 0.841 | 1.06 | 1.33 | 1.64
x2 = 0.1436 | 0.376 | 0.498 | 0.639 | 0.817 | 1.03 | 1.29 | 1.6 | 1.99 | 2.41
x2 = 0.2068 | 0.536 | 0.699 | 0.887 | 1.13 | 1.42 | 1.76 | 2.15 | 2.65 | 3.18
x2 = 0.2812 | 0.663 | 0.857 | 1.08 | 1.38 | 1.72 | 2.13 | 2.59 | 3.18 | 3.85
x2 = 0.3698 | 0.77 | 0.998 | 1.27 | 1.6 | 2.01 | 2.48 | 3.02 | 3.69 | 4.43
x2 = 0.4772 | 0.869 | 1.11 | 1.43 | 1.79 | 2.22 | 2.75 | 3.35 | 4.05 | 4.88
x2 = 0.6101 | 0.959 | 1.22 | 1.55 | 1.94 | 2.42 | 2.98 | 3.59 | 4.37 | 5.21
x2 = 0.7788 | 1.01 | 1.3 | 1.62 | 2.05 | 2.53 | 3.08 | 3.75 | 4.55 | 5.42

CCC(C(C)O)n1ncn(-c2ccc(N3CCN(c4ccc(OCC5COC(Cn6cncn6)(c6ccc(F)cc6F)C5)cc4)CC3)cc2)c1=O (stereo not drawn) + CCOC(C)=O + CC(C)O
solubility (g/100 g solution)
Details | 273.15 K | 278.15 K | 283.15 K | 288.15 K | 293.15 K | 298.15 K | 303.15 K | 308.15 K | 313.15 K
x2 = 0.07045 | 0.00869 | 0.0113 | 0.015 | 0.0192 | 0.0237 | 0.0294 | 0.0352 | 0.0423 | 0.0504
x2 = 0.1457 | 0.0114 | 0.0145 | 0.0186 | 0.023 | 0.0283 | 0.0344 | 0.0415 | 0.049 | 0.058
x2 = 0.2262 | 0.0148 | 0.0192 | 0.0245 | 0.0306 | 0.0374 | 0.0445 | 0.0524 | 0.0621 | 0.0721
x2 = 0.3126 | 0.0191 | 0.0242 | 0.0305 | 0.0373 | 0.0452 | 0.0542 | 0.0641 | 0.0753 | 0.0897
x2 = 0.4055 | 0.0249 | 0.0308 | 0.039 | 0.0482 | 0.0589 | 0.071 | 0.0837 | 0.0987 | 0.119
x2 = 0.5057 | 0.0321 | 0.0401 | 0.0493 | 0.0608 | 0.0728 | 0.0857 | 0.103 | 0.121 | 0.145
x2 = 0.6141 | 0.0354 | 0.0469 | 0.0581 | 0.0726 | 0.0862 | 0.101 | 0.118 | 0.14 | 0.164
x2 = 0.7318 | 0.0383 | 0.0499 | 0.0636 | 0.0793 | 0.0965 | 0.115 | 0.135 | 0.16 | 0.186
x2 = 0.8599 | 0.0405 | 0.0522 | 0.066 | 0.0819 | 0.101 | 0.12 | 0.142 | 0.166 | 0.193

CC(=O)Nc1ccc(OC(=O)c2ccccc2OC(C)=O)cc1 + CN(C)C=O + O
solubility (g/100 g solution)
Details | 278.15 K | 283.15 K | 288.15 K | 293.15 K | 298.15 K | 303.15 K | 308.15 K | 313.15 K | 318.15 K
x2 = 0.02666 | 0.00846 | 0.0119 | 0.016 | 0.0222 | 0.0297 | 0.0399 | 0.0526 | 0.0698 | 0.0891
x2 = 0.05806 | 0.0473 | 0.0628 | 0.084 | 0.109 | 0.141 | 0.18 | 0.232 | 0.291 | 0.365
x2 = 0.09556 | 0.235 | 0.295 | 0.376 | 0.471 | 0.571 | 0.703 | 0.866 | 1.05 | 1.27
x2 = 0.1412 | 0.633 | 0.777 | 0.947 | 1.16 | 1.39 | 1.68 | 1.97 | 2.35 | 2.77
x2 = 0.1978 | 1.3 | 1.55 | 1.82 | 2.17 | 2.52 | 2.94 | 3.41 | 3.9 | 4.5
x2 = 0.27 | 2.25 | 2.63 | 3.06 | 3.49 | 4.01 | 4.6 | 5.22 | 5.91 | 6.7
x2 = 0.3652 | 3.47 | 3.96 | 4.51 | 5.08 | 5.72 | 6.42 | 7.14 | 7.91 | 8.74
x2 = 0.4965 | 4.8 | 5.32 | 5.97 | 6.58 | 7.24 | 7.99 | 8.71 | 9.48 | 10.3
x2 = 0.6893 | 6.08 | 6.62 | 7.2 | 7.86 | 8.46 | 9.14 | 9.88 | 10.5 | 11.3
